Data from patent publication US6451732B1, “Herbicidal compositions of glyphosate trimesium” (Syngenta, Limited, priority 1999, dated 2002).
Like-named read-outs stand apart in the source and are kept apart here.

Experiments:
[1] = system: glyphosate tolerant soybeans; test: Greenhouse postemergence injury to glyphosate tolerant soybeans, glyphosate trimesium and bentazon (Example 2)
Experimental: (§2) The soil was fortified with fertilizer (10-10-10) prior to seeding The compounds were dissolved in water and applied with a carrier volume of 200 L/ha. All treatments were replicated four times.
(§3) The pots were placed in a greenhouse and maintained under good growing conditions. The greenhouse evironmental systems provided the plants with natural and artificial lighting to attaim 12 hours of light per day. Day and night temperatures were maintained at 29° and 21° C. respectively.
(§4) Plants were grown to the V2 or 2 leaf stage prior to compound application. Plants were sprayed 30.5cm (12 inches) above the foliage with the spray solution as prepared for the pre-emergence test. Treated plants were then returned to a greenhouse and watered daily without wetting the foliage. Injury to plants was evaluated 5 days after treatment (“CDAT”) and 13 DAT. Injury was evaluated as percent control being the total injury to the plants due to all factors including: inhibited emergence, stunting, malformation, albinism, chlorosis, and other types of plant injury.

[2] = system: glyphosate tolerant soybeans; details: postemergence
Experimental: as §2, §3, §4

[3] = system: glyphosate tolerant corn; details: postemergence
Experimental: as §2, §3, §4

[4] = system: GLXMA P9333; test: Field plot injury rating (Example 3); assay type: in vivo, glyphosate tolerant soybeans; details: Glyphosate TMS 1.5 lb/acre, with ammonium sulfate
Excerpt: (§1) In plots located in Champaign, Ill. (three replications), seeds of the following weed species were planted: Digitaria sanguinalis (“DIGSA”); Setaria faberi (“SETFA”); Setaria glauca (“SETLU”);Echinochloa crusgalli a crusgalli (“ECHCG”); Sorghum vulgare (“SORVU”); Sida spinosa (“SIDSP”); Ipomoea hederacea (“IPOHE”); Amaranthus retroflexus (“AMARE”); Xanthium strumarium (“XANST”); Helianthus annuns (“HELAN”) and Abutilon theophrasti (“ABUTH”). The plots were also planted with two varieties of glyphosate tolerant soybeans (“GLXMA P9294” and “GLXMA P9333”). When the soybeans had reached the 4-5 trifoliate stage, the plots were treated with glyphosate trimesium alone or glyphosate trimesium+bentazon, at the application rates indicated in Table 3. Injury to the species in each plot was tated 7 and 18 dats after application (DAA) of the glyphosate trimesium with or without bentazon and the results are shown in Table 3. The results shown in Table 3 are the mean of three replications.

[5] = system: GLXMA P9294; test: Field plot injury rating (Example 3); assay type: in vivo, glyphosate tolerant soybeans; details: Glyphosate TMS 1.5 lb/acre, with ammonium sulfate
Excerpt: as §1

[6] = system: Digitaria sanguinalis (DIGSA); test: Field plot injury rating (Example 3); assay type: in vivo; details: Glyphosate TMS 1.5 lb/acre, with ammonium sulfate
Excerpt: as §1

[7] = system: Ipomoea hederacea (IPOHE); test: Field plot injury rating (Example 3); assay type: in vivo; details: Glyphosate TMS 1.5 lb/acre, with ammonium sulfate
Excerpt: as §1

[8] = system: Setaria glauca (SETLU); test: Field plot injury rating (Example 3); assay type: in vivo; details: Glyphosate TMS 1.5 lb/acre, with ammonium sulfate
Excerpt: as §1

[9] = system: Sorghum vulgare (SORVU); test: Field plot injury rating (Example 3); assay type: in vivo; details: Glyphosate TMS 1.5 lb/acre, with ammonium sulfate
Excerpt: as §1

[10] = system: Sida spinosa (SIDSP); test: Field plot injury rating (Example 3); assay type: in vivo; details: Glyphosate TMS 1.5 lb/acre, with ammonium sulfate
Excerpt: as §1

[11] = system: Amaranthus retroflexus (AMARE); test: Field plot injury rating (Example 3); assay type: in vivo; details: Glyphosate TMS 1.5 lb/acre, with ammonium sulfate
Excerpt: as §1

[12] = system: Xanthium strumarium (XANST); test: Field plot injury rating (Example 3); assay type: in vivo; details: Glyphosate TMS 1.5 lb/acre, with ammonium sulfate
Excerpt: as §1

[13] = system: Setaria faberi (SETFA); test: Field plot injury rating (Example 3); assay type: in vivo; details: Glyphosate TMS 1.5 lb/acre, with ammonium sulfate
Excerpt: as §1

[14] = system: Helianthus annuns (HELAN); test: Field plot injury rating (Example 3); assay type: in vivo; details: Glyphosate TMS 1.5 lb/acre, with ammonium sulfate
Excerpt: as §1

[15] = system: Echinochloa crusgalli (ECHCG); test: Field plot injury rating (Example 3); assay type: in vivo; details: Glyphosate TMS 1.5 lb/acre, with ammonium sulfate
Excerpt: as §1

[16] = system: Abutilon theophrasti (ABUTH); test: Field plot injury rating (Example 3); assay type: in vivo; details: Glyphosate TMS 1.5 lb/acre, with ammonium sulfate
Excerpt: as §1

[17] = Glyphosate trimesium 750 g/ha, Bentazon 0 g/ha
[18] = Glyphosate trimesium 1500 g/ha, Bentazon 0 g/ha
[19] = Glyphosate trimesium 3000 g/ha, Bentazon 0 g/ha

CC(C)N1C(=O)c2ccccc2NS1(=O)=O [Bentazon, bentazon]
Soybean injury (percent control) 5 DAT ([1]; Glyphosate trimesium 0 g/ha, Bentazon 4 g/ha): 0%
Soybean injury (percent control) 5 DAT ([1]; Glyphosate trimesium 0 g/ha, Bentazon 8 g/ha): 0%
Soybean injury (percent control) 5 DAT ([1]; Glyphosate trimesium 0 g/ha, Bentazon 16 g/ha): 0%
Soybean injury (percent control) 5 DAT ([1]; Glyphosate trimesium 0 g/ha, Bentazon 32 g/ha): 0%
Soybean injury (percent control) 5 DAT ([1]; Glyphosate trimesium 0 g/ha, Bentazon 64 g/ha): 0%
Soybean injury (percent control) 5 DAT ([2]; TMS 0 g/ha, Bentazon 250 g/ha): 2%
Soybean injury (percent control) 5 DAT ([2]; TMS 0 g/ha, Bentazon 500 g/ha): 8%
Corn injury (percent control) 5 DAT ([3]; TMS 0 g/ha, Bentazon 250 g/ha): 0%
Corn injury (percent control) 13 DAT ([3]; TMS 0 g/ha, Bentazon 250 g/ha): 0%
Corn injury (percent control) 5 DAT ([3]; TMS 0 g/ha, Bentazon 500 g/ha): 0%
Corn injury (percent control) 13 DAT ([3]; TMS 0 g/ha, Bentazon 500 g/ha): 0%

C[S+](C)C.[Cl-] [TMS, trimethylsulphonium chloride]
Soybean injury (percent control) 5 DAT ([2]; TMS 420 g/ha, Bentazon 0 g/ha): 15%
Soybean injury (percent control) 13 DAT ([2]; TMS 420 g/ha, Bentazon 0 g/ha): 13%
Soybean injury (percent control) 5 DAT ([2]; TMS 840 g/ha, Bentazon 0 g/ha): 24%
Soybean injury (percent control) 13 DAT ([2]; TMS 840 g/ha, Bentazon 0 g/ha): 18%
Corn injury (percent control) 5 DAT ([3]; TMS 420 g/ha, Bentazon 0 g/ha): 14%
Corn injury (percent control) 13 DAT ([3]; TMS 420 g/ha, Bentazon 0 g/ha): 48%
Corn injury (percent control) 5 DAT ([3]; TMS 840 g/ha, Bentazon 0 g/ha): 19%
Corn injury (percent control) 13 DAT ([3]; TMS 840 g/ha, Bentazon 0 g/ha): 60%

C[S+](C)C.O=C([O-])CNCP(=O)(O)O [Glyphosate trimesium, trimethylsulphonium salt of N-phosphonomethylglycine]
Soybean injury (percent control) 5 DAT [1, 17]: 13%
Soybean injury (percent control) 13 DAT [1, 17]: 7%
Soybean injury (percent control) 5 DAT [1, 18]: 37%
Soybean injury (percent control) 13 DAT [1, 18]: 27%
Soybean injury (percent control) 5 DAT [1, 19]: 58%
Soybean injury (percent control) 13 DAT [1, 19]: 35%
Injury GLXMA P9333 7 DAA ([4]; 7 DAA): 5
Injury GLXMA P9333 18 DAA ([4]; 18 DAA): 6
Injury GLXMA P9294 7 DAA ([5]; 7 DAA): 8
Injury GLXMA P9294 18 DAA ([5]; 18 DAA): 9
Injury DIGSA 7 DAA ([6]; 7 DAA): 99
Injury DIGSA 18 DAA ([6]; 18 DAA): 100
Injury IPOHE 7 DAA ([7]; 7 DAA): 43
Injury IPOHE 18 DAA ([7]; 18 DAA): 68
Injury SETLU 7 DAA ([8]; 7 DAA): 95
Injury SETLU 18 DAA ([8]; 18 DAA): 100
Injury SORVU 7 DAA ([9]; 7 DAA): 93
Injury SORVU 18 DAA ([9]; 18 DAA): 100
Injury SIDSP 7 DAA ([10]; 7 DAA): 60
Injury SIDSP 18 DAA ([10]; 18 DAA): 83
Injury AMARE 7 DAA ([11]; 7 DAA): 100
Injury AMARE 18 DAA ([11]; 18 DAA): 100
Injury XANST 7 DAA ([12]; 7 DAA): 99
Injury XANST 18 DAA ([12]; 18 DAA): 100
Injury SETFA 7 DAA ([13]; 7 DAA): 96
Injury SETFA 18 DAA ([13]; 18 DAA): 100
Injury HELAN 7 DAA ([14]; 7 DAA): 99
Injury HELAN 18 DAA ([14]; 18 DAA): 100
Injury ECHCG 7 DAA ([15]; 7 DAA): 67
Injury ECHCG 18 DAA ([15]; 18 DAA): 94
Injury ABUTH 7 DAA ([16]; 7 DAA): 40
Injury ABUTH 18 DAA ([16]; 18 DAA): 80
